Like-named read-outs stand apart in the source and are kept apart here.
Assays:
Assay type in all cases: cell-based
[1] = system: MDVR cells (Enzalutamide-resistant C4-2B prostate cancer cells); assay: MTT cell viability / IC50 assay, MDVR; conditions: Homo sapiens
Description: Cell culture: In the following examples, unless otherwise specified, all cell lines are purchased from American Type Culture Collection and cultured in American Type Culture Collection (ATCC)-recommended media, with fetal bovine serum (FBS) to a final concentration of 10% and 1× penicillin/streptomycin at 37° C. with 5% CO2 in a cell culture incubator, unless otherwise specified. Unless otherwise specified, culture is 2D. Where culture is 3D, low attachment plates are used, with the same media. C4-2B (ATCC® CRL-3315™, human prostate cancer cells of epithelial morphology) parental cell line and drug-resistant cells derived therefrom) are cultured in RPMI-1640 with 10% FBS. MDVR cells (an Enzalutamide-resistant variety of C4-2B prostate cancer cells formed as described below) are cultured as indicated for the parental C4-2B cells. Caki-1 cells (human clear cell renal cell carcinoma cells) are cultured in ATCC-formulated McCoy's 5a Medium Modified (ATCC Catalog No. 30-2007) with 10% FBS. PC3 cells (ATCC® CRL-1435™, a human prostate cancer cell line of epithelial morphology initiated from a bone metastasis of a grade IV prostatic adenocarcinoma) are cultured in F-12K with 10% FBS. 22RV1 Prostate Cancer (PC) cells (ATCC® CRL-2505™, a human prostate carcinoma cell line of epithelial morphology) are cultured in RPMI-1640 with 10% FBS. DU145 cells (ATCC® HTB-81™, a human cell line derived from a prostate-originating brain metastase, not detectably hormone sensitive, not expressing prostate antigen; forms adenocarcinoma grade II in nude mice) are cultured in ATCC-formulated Eagle's Minimum Essential Medium (EMEM, Catalog No. 30-2003). H446 cells (ATCC® HTB-171™, a human small cell carcinoma SC lung cancer (SCLC) cell line derived from a metastatic site) are cultured in RPMI-1640 with 10% FBS. H358 cells (ATCC® CRL-5807™, a human non-small cell lung cancer (NSCLC) cell line that expresses protein and RNA of SP-A, the major lung surfactant associated protein, and produces tumors in athymic nude mice) are cultured in RPMI-1640 Medium with 10% FBS. BxPC3 cells (ATCC® CRL-1687™, an adenocarcinoma-derived pancreatic cancer cell line that expresses pancreas cancer specific antigen and carcinoembryonic antigen and forms tumors in nude mice) are cultured in RPMI-1640 with 10% FBS.
Resistant prostate cancer cell lines MDVR and AbiR: MDVR cells are Enzalutamide-resistant cells, AbiR are Abiraterone acetate resistant cells, formed from parental C4-2B prostate cancer cells as follows. A cell assay is performed exposing cells cultured as described above to various drugs indicated below for 72 hours. Parental C4-2B cells are C4-2B non-resistant cells not previously exposed to cancer drugs. Drug-resistant C4-2B cells are created by prolonged exposure to the relevant drug, i.e. Enzalutamide for MDVR, and Abiraterone acetate for AbiR cells, at initially sub-lethal and gradually increasing concentrations until resistance is achieved.
Example 1: A cell assay is performed exposing cells cultured as described above to various drugs indicated below for 24 hours unless otherwise indicated. Each of the cell lines is treated either with a THAD (e.g. DZ-DHA-ether, MI-148-bis-DHA), or for comparison, with the DHA mono-ester “DZ-DHA”; alternatively/additionally, DZ1 and/or unconjugated DHA may serve as comparants. For each cell line, the IC50 is determined for each drug in concentrations from 0 to 100 μM. […] In the controls (not shown in the figures), the cells are exposed to DMSO (vehicle) for a final concentration that equals the highest concentration of the drug tested, to a maximum concentration less than 0.1% v/v. 4 hours before culture end/SDS addition, 10 μL MTT (3-(4,5-Dimethyl-2-thiazolyl)-2,5-diphenyl-2H-tetrazolium bromide, Sigma-Aldrich) is added to wells containing the cells. At the end of culture, 100 μl 10% SDS is added and then the plate containing the cells is placed in a 37° C. cell culture incubator for 8 hours. […]

22Rv1 cells = assay: MTT cell viability / IC50 assay, 22Rv1; conditions: Homo sapiens, 22Rv1, 48 h
Description: (§1) Cell culture: In the following examples, unless otherwise specified, all cell lines are purchased from American Type Culture Collection and cultured in American Type Culture Collection (ATCC)-recommended media, with fetal bovine serum (FBS) to a final concentration of 10% and 1× penicillin/streptomycin at 37° C. with 5% CO2 in a cell culture incubator, unless otherwise specified. Unless otherwise specified, culture is 2D. Where culture is 3D, low attachment plates are used, with the same media. C4-2B (ATCC® CRL-3315™, human prostate cancer cells of epithelial morphology) parental cell line and drug-resistant cells derived therefrom) are cultured in RPMI-1640 with 10% FBS. MDVR cells (an Enzalutamide-resistant variety of C4-2B prostate cancer cells formed as described below) are cultured as indicated for the parental C4-2B cells. Caki-1 cells (human clear cell renal cell carcinoma cells) are cultured in ATCC-formulated McCoy's 5a Medium Modified (ATCC Catalog No. 30-2007) with 10% FBS. […]
(§2) Each of the cell lines is treated either with a THAD (e.g. DZ-DHA-ether, MI-148-bis-DHA), or for comparison, with the DHA mono-ester “DZ-DHA”; alternatively/additionally, DZ1 and/or unconjugated DHA may serve as comparants. […] The absorbance density of the supernatant is read on a 96-well microplate reader at wavelength 595 nm. […]

BxPC3 cells = assay: MTT cell viability / IC50 assay, BxPC3; conditions: Homo sapiens, BXPC-3; BxPC3, 48 h
Description: as §1, §2

Row | Structure (SMILES) | IC50 ([1]; MDVR, 48 h, read-out: IC50) [µM] | IC50 (22Rv1 cells) [µM] | IC50 (BxPC3 cells) [µM] | IC50 ([1]; ENZ-resistant C4-2B cells (MDVR), unit inferred, read-out: IC50 (FIG. 2B description)) [µM] | IC50 ([1]; MDVR, 24 hours, relative IC50, read-out: IC50) [µM]
1 | C[C@H]1[C@@H](O)O[C@@H]2O[C@@]3(C)CC[C@H]4[C@H](C)CC[C@@H]1[C@@]24OO3 [DHA, dihydroartemisinin] | 390 | 9.4 | 50.7 |  | 
2 | C[C@@H]1CC[C@H]2[C@@H](C)C(OC(=O)CCCCCN3/C(=C/C=C4\CCCC(/C=C/C5=[N+](CCCCS(=O)(=O)[O-])c6ccccc6C5(C)C)=C4Cl)C(C)(C)c4ccccc43)O[C@@H]3OC4(C)CC[C@@H]1[C@]32OO4 (stereo in doubt) [DZ3a] | 5.9 | 0.9 | 9.8 | 3.8 | 3.8 to 5.9

— US20230226198A1, “Artemisinin Derivatives” (DA ZEN THERANOSTICS, INC., priority 2019, published 2023)
